According to patent publication US20250177383A1, “DI-CYCLOPROPYL BASED IL-17A MODULATORS AND USES THEREOF” (DICE ALPHA, INC., priority 2022, published 2025):

Columns and labels:
IL-17A/A = biological target: T1, IL-17A/A (Homo sapiens, UniProt Q16552); test: IL-17A/A HEK-Blue Cell Assay; type: cell-based; settings: HEK-Blue IL-17 reporter cells, IL-17A/A stimulation, 20 hours, SEAP readout; read-out: IL17 AA HEK-5 pIC50 (converted)
T1 sequence (Q16552 24-155): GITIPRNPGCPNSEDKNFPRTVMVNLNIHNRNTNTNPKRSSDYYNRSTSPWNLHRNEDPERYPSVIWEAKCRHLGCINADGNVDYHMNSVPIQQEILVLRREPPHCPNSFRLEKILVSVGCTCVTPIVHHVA
Method in brief: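 Cells co-expressing IL-17RA, IL-17RC and Act1 received titrated compound, top final 10 uM in 0.1% DMSO, immediately before IL-17A/A stimulation.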

IL-17A/F = biological target: T2, IL-17A/F (Homo sapiens, UniProt Q16552+Q96PD4); test: IL-17A/F HEK-Blue Cell Assay; type: cell-based; settings: HEK-Blue IL-17 reporter cells, IL-17A/F stimulation, 20 hours, SEAP readout; read-out: IL17AF HEK Blue pIC50 (converted)
T2 sequence (Q16552 24-155): T1 sequence (Q16552 24-155)
T2 sequence (Q96PD4 31-163): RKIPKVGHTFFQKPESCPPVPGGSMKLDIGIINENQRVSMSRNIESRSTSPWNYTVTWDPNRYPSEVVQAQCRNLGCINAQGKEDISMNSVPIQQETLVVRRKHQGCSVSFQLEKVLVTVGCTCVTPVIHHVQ
Experimental: The HEK-Blue IL-17 reporter cell line (Fisher #NC1408637) was used for cell-based IL-17A/F inhibition assays. Cells were grown and prepared for assays according to the manufacturer's instructions. This cell line consists of HEK 293 cells that were designed to expressed IL-17RA, IL-17R^C, and the ActI adapter molecule, the combination of which, when stimulated by IL-17A/A activates a NFκB promoter and drives expression of a recombinant Secreted Alkaline Phosphatase (SEAP) geneprotein. Media from the cells is then added to a development reagent (Quanti-Blue Substrate, Fisher #NC9711613), and read at A630.
Compounds were titrated in DMSO and added to the cells immediately before adding IL-17A/A (Custom from R&D systems, untagged IL-17A/F+BSA as a carrier protein). The cells, compound, and IL-17A/A were then incubated for 20 hours before media was removed for SEAP analysis. The resulting inhibition curve was then analyzed using a Dotmatics screening protocol, and IC50 values were determined using a 4-parameter nonlinear fit. DMSO was added to a universal final concentration of 0.1% to optimize background.

SMILES	IC50 (IL-17A/A) [µM]	IC50 (IL-17A/F) [µM]
CO[C@@H](C)C(=O)N[C@@H](C(=O)N1CCN(C)CC1)[C@@H](C)c1ccc(NC(=O)[C@@H](NC(=O)c2nonc2C)C(C2CC2)C2CC2)c(F)c1 [Compound 347]	< 0.01	0.1 to 10
CCn1nccc1C(=O)N[C@H](C(=O)Nc1ccc(C(C(NC(=O)[C@H](C)OC)C(=O)N2CCN(C)[C@H](C)C2)C(F)(F)F)cc1F)C(C1CC1)C1CC1 (single isomer, unassigned) [Compound 357]	0.1 to 10	0.1 to 10
CCOCCN(C)C(=O)N[C@@H](C(=O)N1CCN(C)CC1)[C@@H](C)c1ccc(NC(=O)[C@@H](NC(=O)c2ccnn2CC)C(C2CC2)C2CC2)c(F)c1 [Compound 316]	0.01 to 0.1	0.1 to 10
CCC(=O)N[C@@H](C(=O)N1CCN(C)[C@H](C)C1)[C@@H](C)c1ccc(NC(=O)[C@@H](NC(=O)c2nonc2C)C(C2CC2)C2CC2)c(F)c1 [Compound 246]	< 0.01	0.1 to 10
CCn1nccc1C(=O)N[C@H](C(=O)Nc1ccc([C@H](C)[C@@H](NC(=O)[C@H](C)OC)C(=O)N2CCN(C)[C@H](C)C2)cc1F)C(C1CC1)C1CC1 [Compound 221]	< 0.01	0.01 to 0.1
CCOC(C)C(=O)N[C@@H](C(=O)N1CCN(C)[C@H](C)C1)[C@@H](C)c1ccc(NC(=O)[C@@H](NC(=O)c2ccnn2CC)C(C2CC2)C2CC2)c(F)c1 (single isomer, unassigned) [Compound 320]	0.01 to 0.1	0.1 to 10
CO[C@@H](C)C(=O)N[C@@H](C(=O)N1C[C@H]2CC[C@@H](C1)N2C)[C@@H](C)c1ccc(NC(=O)[C@@H](NC(=O)C2(F)CC2)C(C2CC2)C2CC2)c(F)c1 [Compound 294]	0.01 to 0.1	0.1 to 10
CCn1nccc1C(=O)N[C@H](C(=O)Nc1ccc([C@H](C)[C@@H](NC(=O)[C@H](C)OC)C(=O)N2CCN(C)C[C@@H]2C)cc1F)C(C1CC1)C1CC1 [Compound 284]	< 0.01	0.01 to 0.1
CO[C@@H](C)C(=O)N[C@@H](C(=O)N1CCN(C)[C@H](C)C1)[C@@H](C)c1ccc(NC(=O)[C@@H](NC(=O)C2(F)CC2)C(C2CC2)C2CC2)c(F)c1 [Compound 273]	< 0.01	0.1 to 10
C[C@@H]1CN(C(=O)[C@H](NC(=O)N(C)C2CC2)[C@@H](C)c2ccc(NC(=O)[C@@H](NC(=O)C3(F)CC3)C(C3CC3)C3CC3)c(F)c2)CCN1C [Compound 271]	< 0.01	0.1 to 10
CCn1nccc1C(=O)N[C@H](C(=O)Nc1ccc([C@H](C)[C@@H](NC(=O)[C@@H](C)F)C(=O)N2CCNC(CF)C2)cc1F)C(C1CC1)C1CC1 (single isomer, unassigned) [Compound 303]	0.01 to 0.1	0.1 to 10
CCn1nccc1C(=O)N[C@H](C(=O)Nc1ccc([C@H](C)[C@@H](NC(=O)C(C)C2CC2)C(=O)N2CCN(C)[C@H](C)C2)cc1F)C(C1CC1)C1CC1 (single isomer, unassigned) [Compound 309]	< 0.01	< 0.01
CCOC(=O)N[C@@H](CF)C(=O)N[C@@H](C(=O)N1CCN(C)CC1)[C@@H](C)c1ccc(NC(=O)[C@@H](NC(=O)C2(F)CC2)C(C2CC2)C2CC2)c(F)c1 [Compound 359]	< 0.01	0.1 to 10
CCn1nccc1C(=O)N[C@H](C(=O)Nc1ccc([C@H](C)[C@@H](NC(=O)C(C)C(F)(F)F)C(=O)N2CCN(C)CC2)cc1F)C(C1CC1)C1CC1 (single isomer, unassigned) [Compound 333]	0.01 to 0.1	0.1 to 10
CCC(OC)C(=O)N[C@@H](C(=O)N1CCN(C)[C@H](C)C1)[C@@H](C)c1ccc(NC(=O)[C@@H](NC(=O)c2ccnn2CC)C(C2CC2)C2CC2)c(F)c1 (single isomer, unassigned) [Compound 338]	< 0.01	0.01 to 0.1
CCn1nccc1C(=O)N[C@H](C(=O)Nc1ccc([C@H](C)[C@@H](NC(=O)N(C)C2CC2)C(=O)N2CCN(C)[C@H](C)C2)cc1F)C(C1CC1)C1CC1 [Compound 291]	< 0.01	< 0.01
CCn1nccc1C(=O)N[C@H](C(=O)Nc1ccc(C(C(NC(=O)[C@H](C)OC)C(=O)N2CCN(C)[C@H](C)C2)C(F)(F)F)cc1F)C(C1CC1)C1CC1 (single isomer, unassigned) [Compound 353]	< 0.01	0.01 to 0.1
